From ChEMBL document CHEMBL5532639, “Heterocyclic pyrimidine derivatives as promising antibacterial agents” (Eur J Med Chem, 2023)
≈ marks a conversion by molar mass, not a printed value. Blank lines part the entries; values can stand above or below the molecule they belong to.

What was measured:
Salmonella typhimurium = test: Antibacterial activity against Salmonella typhimurium DT104 assessed as reduction in bacterial growth; assay type: functional, Salmonella enterica subsp. enterica serovar Typhimurium; settings: Salmonella enterica
Escherichia coli [1] = test: Antibacterial activity against Escherichia coli ATCC 25922 assessed as bacterial growth inhibition; assay type: functional
Bacillus subtilis [2] = test: Antibacterial activity against Bacillus subtilis 6633 assessed as reduction in bacterial growth; assay type: functional
Staphylococcus aureus [3] = test: Antibacterial activity against Staphylococcus aureus ATCC 3750 assessed as reduction in bacterial growth; assay type: functional
Bacillus subtilis [4] = test: Antimicrobial activity against Bacillus subtilis RCMB 010069 assessed as bacterial growth inhibition by measuring zone of inhibition at 50 ug/ml by agar cup diffusion assay; assay type: functional; settings: read-out: IZ
Escherichia coli [5] = test: Antimicrobial activity against Escherichia coli RCMB 010052 assessed as bacterial growth inhibition by measuring zone of inhibition at 50 ug/ml by agar cup diffusion assay; assay type: functional; settings: read-out: IZ
Streptococcus pneumoniae = test: Antimicrobial activity against Streptococcus […] assessed as bacterial growth inhibition by measuring zone of inhibition at 50 ug/ml by agar cup diffusion assay; assay type: functional; settings: read-out: IZ
Staphylococcus aureus [6] = test: Antibacterial activity against Staphylococcus aureus assessed as zone of inhibition at 20 mg/ml; assay type: functional; settings: read-out: IZ
Bacillus subtilis [7] = test: Antibacterial activity against Bacillus subtilis assessed as zone of inhibition at 20 mg/ml; assay type: functional; settings: read-out: IZ
Serratia marcescens = test: Antibacterial activity against Serratia marcescens assessed as zone of inhibition at 20 microg/ml; assay type: functional; settings: read-out: IZ
Sarcina = test: Antibacterial activity against Sarcina assessed as zone of inhibition at 20 mg/ml; assay type: functional; settings: read-out: IZ
Escherichia coli [8] = test: Antibacterial activity against Escherichia coli assessed as zone of inhibition at 20 mg/ml; assay type: functional; settings: read-out: IZ
Streptococcus pyogenes [9] = test: Antibacterial activity against Streptococcus pyogenes assessed as inhibition of microbial growth by broth micro-dilution method; assay type: functional
Staphylococcus aureus [10] = test: Antibacterial activity against Staphylococcus aureus assessed as inhibition of microbial growth by broth micro-dilution method; assay type: functional
Escherichia coli [11] = test: Antibacterial activity against Escherichia coli assessed as inhibition of microbial growth by broth micro-dilution method; assay type: functional
Pseudomonas aeruginosa [12] = test: Antibacterial activity against Pseudomonas aeruginosa assessed as inhibition of microbial growth by broth micro-dilution method; assay type: functional
Pseudomonas aeruginosa [13] = test: Antibacterial activity against Pseudomonas aeruginosa assessed as reduction in microbial growth by measuring zone of inhibition; assay type: functional
Escherichia coli [14] = test: Antibacterial activity against Escherichia coli assessed as reduction in microbial growth by measuring zone of inhibition; assay type: functional
Staphylococcus aureus [15] = test: Antibacterial activity against Staphylococcus aureus assessed as reduction in microbial growth by measuring zone of inhibition; assay type: functional
Bacillus subtilis [16] = test: Antibacterial activity against Bacillus subtilis assessed as reduction in microbial growth by measuring zone of inhibition; assay type: functional
Escherichia coli [17] = test: Antibacterial activity against Escherichia coli assessed as bacterial growth inhibition incubated for 18 hrs by CLSI protocol based Mueller-Hinton broth assay; assay type: functional
Pseudomonas aeruginosa [18] = test: Antibacterial activity against Pseudomonas aeruginosa assessed as reduction in bacterial growth by broth microdilution method; assay type: functional
Staphylococcus aureus [19] = test: Antibacterial activity against Staphylococcus aureus assessed as reduction in microbial growth by CLSI based broth microdilution method; assay type: functional
Streptococcus pyogenes [20] = test: Antibacterial activity against Streptococcus pyogenes assessed as reduction in microbial growth by CLSI based broth microdilution method; assay type: functional

MIC (Salmonella typhimurium): 5 µg/mL (≈ 12.9 µM)
MIC (Escherichia coli [1]): 4 µg/mL (≈ 10.3 µM)
MIC (Bacillus subtilis [2]): 5 µg/mL (≈ 12.9 µM)
MIC (Staphylococcus aureus [3]): 4 µg/mL (≈ 10.3 µM)
SMILES: Cc1nc2scc(-c3ccco3)c2c(=O)n1NC(=O)c1ccc(F)cc1F

SMILES: O=C1OC(c2ccc(C(=O)O)cc2)N=C1/C=C/c1ccc(C(=O)c2ccc(Cl)cc2)cc1 (stereo unspecified)
zone of inhibition at 50 µg/mL (Bacillus subtilis [4]): 24.3 mm
zone of inhibition at 50 µg/mL (Escherichia coli [5]): 18.2 mm
zone of inhibition at 50 µg/mL (Streptococcus pneumoniae): 21.8 mm

SMILES: O=C1OC(c2ccc(C(=O)O)cc2)N=C1/C=C/c1ccc(C(=O)c2ccco2)cc1 (stereo unspecified)
zone of inhibition at 50 µg/mL (Bacillus subtilis [4]): 21.2 mm
zone of inhibition at 50 µg/mL (Escherichia coli [5]): 16.7 mm
zone of inhibition at 50 µg/mL (Streptococcus pneumoniae): 19.3 mm

MIC (Salmonella typhimurium): 6 µg/mL (≈ 16.2 µM)
MIC (Escherichia coli [1]): 5 µg/mL (≈ 13.5 µM)
MIC (Bacillus subtilis [2]): 4 µg/mL (≈ 10.8 µM)
MIC (Staphylococcus aureus [3]): 5 µg/mL (≈ 13.5 µM)
SMILES: Cc1nc2scc(-c3ccco3)c2c(=O)n1/N=C/c1ccc(F)cc1F

SMILES: Nc1nc2ncnn2c(-c2ccc(Br)cc2)c1C(=O)c1ccc(C(=O)O)cc1
zone of inhibition at 50 µg/mL (Bacillus subtilis [4]): 28.9 mm
zone of inhibition at 50 µg/mL (Escherichia coli [5]): 18.3 mm
zone of inhibition at 50 µg/mL (Streptococcus pneumoniae): 21.3 mm

SMILES: COc1ccc(-c2c(C(=O)c3ccc(C(=O)O)cc3)c(N)nc3nc4ccccc4n23)cc1
zone of inhibition at 50 µg/mL (Bacillus subtilis [4]): 24.7 mm
zone of inhibition at 50 µg/mL (Escherichia coli [5]): 17.9 mm
zone of inhibition at 50 µg/mL (Streptococcus pneumoniae): 19.3 mm

SMILES: CSc1c(C#N)c(N)nc2c(/N=N/c3ccc(S(=O)(=O)Nc4ncccn4)cc3)c(=O)[nH]n12
zone of inhibition at 20000 µg/mL (Staphylococcus aureus [6]): 9 mm
zone of inhibition at 20000 µg/mL (Bacillus subtilis [7]): 9 mm
zone of inhibition at 20 µg/mL (Serratia marcescens): 15 mm
zone of inhibition at 20000 µg/mL (Sarcina): 12 mm
zone of inhibition at 20000 µg/mL (Escherichia coli [8]): 15 mm

MIC (Streptococcus pyogenes [9]): 100 µg/mL
MIC (Staphylococcus aureus [10]): 100 µg/mL
MIC (Escherichia coli [11]): 62.5 µg/mL
MIC (Pseudomonas aeruginosa [12]): 50 µg/mL
SMILES: COc1ccc(-c2cc(-c3ccc(Oc4ccccc4)cc3)nc(SCC(=O)Nc3nc4ccc(S(=O)(=O)O)cc4s3)n2)cc1

MIC (Salmonella typhimurium): 6 µg/mL (≈ 14.3 µM)
MIC (Escherichia coli [1]): 6 µg/mL (≈ 14.3 µM)
MIC (Bacillus subtilis [2]): 4 µg/mL (≈ 9.52 µM)
MIC (Staphylococcus aureus [3]): 5 µg/mL (≈ 11.9 µM)
SMILES: Cc1nc2scc(-c3ccco3)c2c(=O)n1NC(=O)c1ccc(Cl)cc1Cl

SMILES: Cc1cnc(NS(=O)(=O)c2ccc(/N=N/c3c(=O)[nH]n4c(NN)c(C#N)c(N)nc34)cc2)nc1
zone of inhibition at 20000 µg/mL (Staphylococcus aureus [6]): 9 mm
zone of inhibition at 20000 µg/mL (Bacillus subtilis [7]): 9 mm
zone of inhibition at 20 µg/mL (Serratia marcescens): 15 mm
zone of inhibition at 20000 µg/mL (Sarcina): 12 mm
zone of inhibition at 20000 µg/mL (Escherichia coli [8]): 12 mm

SMILES: Oc1ccccc1/C=N/Nc1nc(SCc2ccccc2)ncc1I
inhibition zone (IZ) (Pseudomonas aeruginosa [13]): 18 mm
inhibition zone (IZ) (Escherichia coli [14]): 7 mm
inhibition zone (IZ) (Staphylococcus aureus [15]): 15 mm
inhibition zone (IZ) (Bacillus subtilis [16]): 13 mm

SMILES: CN[C@@H]1[C@H](O[C@H]2[C@H](O[C@H]3[C@H](O)[C@@H](O)[C@H](N=C(N)N)[C@@H](O)[C@@H]3N=C(N)N)O[C@@H](C)[C@]2(O)C=O)O[C@@H](CO)[C@H](O)[C@H]1O [STREPTOMYCIN]
zone of inhibition at 20000 µg/mL (Staphylococcus aureus [6]): 18 mm
zone of inhibition at 20000 µg/mL (Bacillus subtilis [7]): 18 mm
zone of inhibition at 20 µg/mL (Serratia marcescens): 18 mm
zone of inhibition at 20000 µg/mL (Sarcina): 18 mm
zone of inhibition at 20000 µg/mL (Escherichia coli [8]): 18 mm

MIC (Escherichia coli [17]): 25 µg/mL (≈ 45.6 µM)
MIC (Pseudomonas aeruginosa [18]): 50 µg/mL (≈ 91.1 µM)
MIC (Staphylococcus aureus [19]): 100 µg/mL
MIC (Streptococcus pyogenes [20]): 100 µg/mL
SMILES: O=[N+]([O-])c1ccc(Nc2nc(Nc3ccc(S(=O)(=O)Nc4ncccn4)cc3)nc(N3CCCCC3)n2)cc1

SMILES: CSc1c(C#N)c(N)nc2c(/N=N/c3ccc(S(=O)(=O)Nc4ncc(C)cn4)cc3)c(=O)[nH]n12
zone of inhibition at 20000 µg/mL (Staphylococcus aureus [6]): 9 mm
zone of inhibition at 20000 µg/mL (Bacillus subtilis [7]): 9 mm
zone of inhibition at 20 µg/mL (Serratia marcescens): 15 mm
zone of inhibition at 20000 µg/mL (Sarcina): 12 mm
zone of inhibition at 20000 µg/mL (Escherichia coli [8]): 12 mm

MIC (Escherichia coli [17]): 25 µg/mL (≈ 46.5 µM)
MIC (Pseudomonas aeruginosa [18]): 100 µg/mL (≈ 186 µM)
MIC (Staphylococcus aureus [19]): 200 µg/mL
MIC (Streptococcus pyogenes [20]): 100 µg/mL
SMILES: O=S(=O)(Nc1ncccn1)c1ccc(Nc2nc(Nc3ccc(Cl)cc3)nc(N3CCCCC3)n2)cc1

MIC (Salmonella typhimurium): 5 µg/mL (≈ 12.4 µM)
MIC (Escherichia coli [1]): 6 µg/mL (≈ 14.8 µM)
MIC (Bacillus subtilis [2]): 4 µg/mL (≈ 9.89 µM)
MIC (Staphylococcus aureus [3]): 4 µg/mL (≈ 9.89 µM)
SMILES: Cc1nc2scc(-c3ccco3)c2c(=O)n1/N=C/c1ccc(Cl)cc1Cl

SMILES: CCn1cc(C(=O)O)c(=O)c2cc(F)c(N3CCNCC3)cc21 [NORFLOXACIN]
MIC (Streptococcus pyogenes [9]): 10 µg/mL
MIC (Staphylococcus aureus [10]): 10 µg/mL
MIC (Escherichia coli [11]): 10 µg/mL
MIC (Pseudomonas aeruginosa [12]): 10 µg/mL

SMILES: Nc1ncccc1/C=N/Nc1nc(SCc2ccccc2)ncc1I
inhibition zone (IZ) (Pseudomonas aeruginosa [13]): 18 mm
inhibition zone (IZ) (Escherichia coli [14]): 7 mm
inhibition zone (IZ) (Staphylococcus aureus [15]): 18 mm
inhibition zone (IZ) (Bacillus subtilis [16]): 17 mm

MIC (Salmonella typhimurium): 5 µg/mL (≈ 12.6 µM)
MIC (Escherichia coli [1]): 7 µg/mL (≈ 17.7 µM)
MIC (Bacillus subtilis [2]): 5 µg/mL (≈ 12.6 µM)
MIC (Staphylococcus aureus [3]): 6 µg/mL (≈ 15.1 µM)
SMILES: Cc1nc2scc(-c3ccco3)c2c(=O)n1NC(=O)c1ccc([N+](=O)[O-])cc1
